# From patent US8674111B2, “Oxazole and thiazole derivatives as ALX receptor agonists” (Actelion Pharmaceuticals Ltd., priority 2009, dated 2014)
# Target: T1, recombinant human ALX receptor (Homo sapiens, UniProt P25090)
# T1 construct: expressed in transfected cells; host or cells: HEK293 (HEK293-hALXR-Gα16)
# T1 sequence (P25090 1-351): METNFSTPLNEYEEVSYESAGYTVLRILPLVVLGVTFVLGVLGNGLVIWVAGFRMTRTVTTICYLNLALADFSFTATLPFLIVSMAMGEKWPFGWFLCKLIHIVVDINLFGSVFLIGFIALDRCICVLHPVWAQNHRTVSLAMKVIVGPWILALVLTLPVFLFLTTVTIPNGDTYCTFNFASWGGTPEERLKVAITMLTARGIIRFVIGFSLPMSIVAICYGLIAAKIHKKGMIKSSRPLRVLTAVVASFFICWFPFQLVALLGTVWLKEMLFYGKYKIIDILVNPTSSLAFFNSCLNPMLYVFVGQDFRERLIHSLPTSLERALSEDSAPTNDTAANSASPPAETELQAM
# Assay: Intracellular calcium measurements (FLIPR), ALX receptor agonistic activity
# Format: cell-based
# Conditions: HEK293-hALXR-Gα16 cells; Fluo-4 calcium fluorescence; normalized to WKYMVm 10 nM
# Experimental: The ALX receptor agonistic activity of the compounds of formula (I) is determined in accordance with the following experimental method.
# Intracellular Calcium Measurements:
# Cells expressing recombinant human ALX receptor and the G-protein Gα16 (HEK293-hALXR-Gα16) were grown to 80% confluency in Growing Medium (GM). Cells were detached from culture dishes with a cell dissociation buffer (Invitrogen, 13151-014), and collected by centrifugation at 1,000 rpm at rt for 5 min in Assay Buffer (AB) (equal parts of Hank's BSS (Gibco, 14065-049) and DMEM without Phenol Red (Gibco, 11880-028)). After 60 min incubation at 37° C. under 5% CO2 in AB supplemented with 1 μM Fluo-4 (AM) (Invitrogen, F14202) and 20 mM HEPES (Gibco, 15630-056), the cells were washed and resuspended in AB. They were then seeded onto 384-well FLIPR assay plates (Greiner, 781091) at 50,000 cells in 70 μl per well and sedimented by centrifugation at 1,000 rpm for 1 min. Stock solutions of test compounds were made up at a concentration of 10 mM in DMSO, and serially diluted in AB to concentrations required for activation dose response curves. WKYMVm (Phoenix Peptides) was used as a reference agonist. A FLIPR Tetra instrument (Molecular Devices) was operated according to the manufacturer's standard instructions, adding 4 μl of test compound dissolved at 10 mM in DMSO and diluted prior to the experiment in assay buffer to obtain the desired final concentration. Changes in fluorescence were monitored before and after the addition of test compounds at lex=488 nm and lem=540 nm. Emission peak values above base level after compounds addition were exported after base line subtraction. Values were normalized to high-level control (WKYMVm compound, 10 nM final concentration) after subtraction of the base line value (AB addition).
row,Compound,EC50
1,"CC(=O)c1ccn(Cc2nc(NC(=O)OCc3ccccc3Cl)co2)n1 [Example 3, [2-(3-Acetyl-pyrazol-1-ylmethyl)-oxazol-4-yl]-carbamic acid 2-chloro-benzyl ester]",0.0007 µM
2,"CC(F)(F)CCCCc1nc(NC(=O)OCc2ccccc2Cl)co1 [Example 4, [2-(5,5-Difluoro-hexyl)-oxazol-4-yl]-carbamic acid 2-chloro-benzyl ester]",0.013 µM
3,"O=C(Nc1coc(Cn2cc(Br)cn2)n1)OCc1ccccc1Cl [Example 10, [2-(4-Bromo-pyrazol-1-ylmethyl)-oxazol-4-yl]-carbamic acid 2-chloro-benzyl ester]",0.072 µM
4,"CC(=O)c1ccn(Cc2nc(NC(=O)OCc3ccc(F)cc3Cl)co2)n1 [Example 11, [2-(3-Acetyl-pyrazol-1-ylmethyl)-oxazol-4-yl]-carbamic acid 2-chloro-4-fluoro-benzyl ester]",0.0005 µM
5,"COc1cccc(COC(=O)Nc2coc(Cn3ccc(C(C)=O)n3)n2)c1 [Example 12, [2-(3-Acetyl-pyrazol-1-ylmethyl)-oxazol-4-yl]-carbamic acid 3-methoxy-benzyl ester]",0.001 µM
6,"CC(=O)c1ccn(Cc2nc(NC(=O)OCc3ccc(C(F)(F)F)cc3)co2)n1 [Example 13, [2-(3-Acetyl-pyrazol-1-ylmethyl)-oxazol-4-yl]-carbamic acid 4-trifluoromethyl-benzyl ester]",0.012 µM
7,"CC(=O)c1ccc(Cc2nc(NC(=O)OCc3ccccc3Cl)co2)s1 [Example 14, [2-(5-Acetyl-thiophen-2-ylmethyl)-oxazol-4-yl]-carbamic acid 2-chloro-benzyl ester]",0.0022 µM
8,"CC(=O)c1cccc(Cc2nc(NC(=O)OCc3cccc(OC(F)(F)F)c3)co2)c1 [Example 15, [2-(3-Acetyl-benzyl)-oxazol-4-yl]-carbamic acid 3-trifluoromethoxy-benzyl ester]",0.048 µM
9,"CC(=O)c1ccn(Cc2nc(NC(=O)c3nc(C4CC4)sc3-c3ccccc3)co2)n1 [Example 16, 2-Cyclopropyl-5-phenyl-thiazole-4-carboxylic acid [2-(3-acetyl-pyrazol-1-ylmethyl)-oxazol-4-yl]-amide]",6.56 µM
10,"CC(=O)c1cccc(Cc2nc(NC(=O)/C=C/c3ccc(C(F)(F)F)cc3)co2)c1 [Example 17, (E)-N-[2-(3-Acetyl-benzyl)-oxazol-4-yl]-3-(4-trifluoromethyl-phenyl)-acrylamide]",1.31 µM
11,"CC(=O)c1ccc(Cc2nc(NC(=O)c3ncoc3-c3ccccc3)cs2)s1 [Example 18, 5-Phenyl-oxazole-4-carboxylic acid [2-(5-acetyl-thiophen-2-ylmethyl)-thiazol-4-yl]-amide]",1.57 µM
12,"CC(=O)c1ccc(Cc2nc(NC(=O)c3nc(C)oc3-c3cccc(Cl)c3)cs2)s1 [Example 19, 5-(3-Chloro-phenyl)-2-methyl-oxazole-4-carboxylic acid [2-(5-acetyl-thiophen-2-ylmethyl)-thiazol-4-yl]-amide]",3.64 µM
13,"CC(=O)c1ccc(Cc2nc(NC(=O)c3ncoc3-c3ccccc3)cs2)o1 [Example 20, 5-Phenyl-oxazole-4-carboxylic acid [2-(5-acetyl-furan-2-ylmethyl)-thiazol-4-yl]-amide]",0.062 µM
14,"CC(=O)c1ccc(Cc2nc(NC(=O)c3nc(C)oc3-c3cccc(C)c3)cs2)o1 [Example 21, 2-Methyl-5-m-tolyl-oxazole-4-carboxylic acid [2-(5-acetyl-furan-2-ylmethyl)-thiazol-4-yl]-amide]",0.216 µM

# Results, then the compound that gave them:
row,EC50,Compound
1,0.0003 µM,"CC(=O)CCCCc1nc(NC(=O)OCc2ccccc2Cl)co1 [Example 1, [2-(5-Oxo-hexyl)-oxazol-4-yl]-carbamic acid 2-chloro-benzyl ester]"
2,0.018 µM,"CC(=O)CCCCc1nc(NC(=O)c2ncoc2-c2ccccc2)co1 [Example 2, 5-Phenyl-oxazole-4-carboxylic acid [2-(5-oxo-hexyl)-oxazol-4-yl]-amide]"
3,0.194 µM,"Cc1cccc(-c2oc(C)nc2C(=O)Nc2coc(CCCCC(C)(F)F)n2)c1 [Example 5, 2-Methyl-5-m-tolyl-oxazole-4-carboxylic acid [2-(5,5-difluoro-hexyl)-oxazol-4-yl]-amide]"
4,0.0098 µM,"CC(=O)CCCCc1nc(NC(=O)c2nc(C)oc2-c2cccc(C)c2)co1 [Example 6, 2-Methyl-5-m-tolyl-oxazole-4-carboxylic acid [2-(5-oxo-hexyl)-oxazol-4-yl]-amide]"
5,0.784 µM,"CC(=O)CCCCc1nc(NC(=O)c2ncsc2-c2cccc(F)c2)co1 [Example 7, 5-(3-Fluoro-phenyl)-thiazole-4-carboxylic acid [2-(5-oxo-hexyl)-oxazol-4-yl]-amide]"
6,0.086 µM,"CC(=O)CCCCc1nc(NC(=O)c2ncoc2-c2ccc(F)cc2)co1 [Example 8, 5-(4-Fluoro-phenyl)-oxazole-4-carboxylic acid [2-(5-oxo-hexyl)-oxazol-4-yl]-amide]"
7,0.0032 µM,"CCc1nc(C(=O)Nc2coc(CCCCC(C)=O)n2)c(-c2ccccc2)o1 [Example 9, 2-Ethyl-5-phenyl-oxazole-4-carboxylic acid [2-(5-oxo-hexyl)-oxazol-4-yl]-amide]"
